From patent publication US8846876B2, “Compositions containing, methods involving, and uses of non-natural amino acids and polypeptides” (Abrx, Inc., priority 2004, dated 2014)

Experiments:
RS = RS test
Protocol: (§1) This example provides results of four tests that were conducted on certain illustrative non-natural amino acids as an aid for predicting their properties for incorporation into non-natural amino acid polypeptides.

[1] = Oxime stability pH 4-8 (testing non-natural amino acids); type: physicochemical
Protocol: as §1

Structure (SMILES) | RS test (RS) | Oxime Stability pH 4-8 [1]
CC(=O)c1ccc(C[C@H](N)C(=O)O)cc1 | √ | 
CC(=O)N/N=C/c1ccc(C[C@H](N)C(=O)O)cc1 | √ | 
CC(=O)CC(=O)c1ccc(C[C@H](N)C(=O)O)cc1 | Meta- bolized | 
N[C@@H](Cc1ccc2c(c1)NC(=O)C2=O)C(=O)O |  | — —
